Where two headings read alike, the source gives them in different places.

Data on ten molecules can be found in article PMC6017816, “Sesquiterpene Lactones from Vernonia cinerascens Sch. Bip. and Their in Vitro Antitrypanosomal Activity” (Molecules : A Journal of Synthetic Chemistry and Natural …, 2018).

The test system of data set [1] is Trypanosoma brucei rhodesiense (Tbr) (STIB 900 strain) trypomastigotes. The experiment in a line: in vitro activity against Trypanosoma brucei rhodesiense bloodstream trypomastigotes. It is filed as cell-based. The settings on record: for IC50: Trypanosoma brucei, read-out: Tbr IC50; for SI (selectivity index): cytotoxicity L6 IC50 versus Tbr IC50. As to the method: (§1) The dichloromethane (CH2Cl2) extract obtained from leaves of V. cinerascens was tested for in vitro antiprotozoal activity against Trypanosoma brucei rhodesiense (Tbr) (STIB 900 strain) trypomastigotes, T. cruzi (Tcr) (Tulahuen C4 strain) amastigotes, Leishmania donovani (Ldon) (MHOM-ET-67/L82 strain) axenic amastigotes, and Plasmodium falciparum (Pf) (NF54 strain) intra-erythrocytic forms. It was also evaluated for in vitro cytotoxicity against mammalian cells, specifically the rat-skeletal myoblast cell line L6. […] Therefore, the CH2Cl2 extract was fractionated by silica gel column chromatography and representative fractions were subjected to bioactivity testing against Tbr (STIB 900 strain) trypomastigotes.
(§2) In vitro bioactivity tests were performed as previously described against Tbr (bloodstream trypomastigotes, STIB 900 strain), Tcr (amastigotes, Tulahuen C4 strain), Ldon (axenic amastigotes, MHOM-ET-67/L82 strain), and Pf (intraerythrocytic forms, NF54 strain), and the cytotoxicity test was conducted against mammalian cells (L6 cell line from rat-skeletal myoblasts) at the Swiss Tropical and Public Health Institute (Swiss TPH, Basel, Switzerland).

The nature of data set [2]: in vitro cytotoxicity against mammalian cells (L6). It is filed as cell-based, rat. Here is the method: as §1, §2
The subject of data set [3] is Trypanosoma brucei rhodesiense (Tbr) (STIB 900 strain) trypomastigotes. Also on record: method as in PMID 28397756. The settings on record: isolated from V. lasiopus in previous study; read-out: in vitro antiTbr activity IC50; cited from earlier work.
Where [4] appears, read: bloodstream trypomastigotes, STIB 900 strain, means of two independent determinations ± absolute deviation.
Where [5] appears, read: L6 cell line from rat-skeletal myoblasts, means of two independent determinations ± absolute deviation, read-out: Cytotoxicity IC50.

For `C=C[C@@]12COC(=O)C(=C)[C@@H]1[C@H]1OC(=O)C(=C)[C@@H]1[C@@H](OC(=O)C(=C)CO)C2` [Compound 2, vernodalin], the half-inhibitory concentration (IC50) (commonly the concentration needed to halve the response being measured) in data set [1] (setting [4]) came to 0.16 ± 0.04 µM; in data set [2] (rat), 5.6 µM. Besides, the “SI (selectivity index)” value in data set [1] is on record as 35.
For `C=C[C@@]12COC(=O)C(=C)[C@@H]1[C@H]1OC(=O)[C@@H](C)[C@@H]1[C@@H](OC(=O)C(=C)CO)C2` [Compound 3, 11β,13-dihydrovernodalin], in that order: 1.1 ± 0.3 µM, 4.7 ± 0.4 µM and 4.2.
As to `C=C(C)C(=O)OC1CC23OC2CCC(=CC2OC(=O)C(C)C21)COC3O` (stereo not drawn) [Compound 4, 11β,13-dihydrovernolide], the concentration for half-maximal inhibition (IC50) in data set [1] (setting [4]) worked out at 17 µM; in data set [2] (setting [5]), 13 ± 2 µM. Further, the “SI (selectivity index)” value in data set [1] was 0.8.
As to `C=C(C)C(=O)OC1CC23OC2CCC(=CC2OC(=O)C(=C)C21)COC3O` (stereo not drawn) [Compound 5, vernolide], the results for the IC50 in data set [1] (setting [4]) and in data set [2] (setting [5]) were 0.5 ± 0.01 µM and 6.9 µM, respectively. In data set [1], the “SI (selectivity index)” value came to 13.
For the molecule `C=C(CO)C(=O)OC1CC23OC2CCC(=CC2OC(=O)C(C)C21)COC3O` (stereo not drawn) [Compound 6, 11β,13-dihydrohydroxyvernolide], the figures for the half-maximal inhibitory concentration (IC50) in data set [1] (setting [4]) and in data set [2] (rat) were 15 µM and 49 ± 1 µM, respectively. Also, the “SI (selectivity index)” value in data set [1] is 3.2.
Taken in the same sequence, the figures for `C=C(CO)C(=O)OC1CC23OC2CCC(=CC2OC(=O)C(=C)C21)COC3O` (stereo not drawn) [Compound 7, hydroxyvernolide] were 5 µM, 22 ± 1 µM and 4.3.
As to `C=C(CO)C(=O)O[C@H]1C[C@@]2(CO)O[C@@H]2CC/C(C=O)=C/[C@H]2OC(=O)C(=C)[C@H]12` [Compound 8, vernocinerascolide], the IC50 in data set [1] (setting [4]) was found to be 4.8 ± 1.1 µM; in data set [2] (rat), 128 ± 1 µM. In addition, the “SI (selectivity index)” value in data set [1] worked out at 27.
Consider `Nc1nc(N)nc(Nc2ccc([As]3SCC(CO)S3)cc2)n1` (stereo not drawn) [melarsoprol, reference compound], for which the IC50 in data set [1] was 0.003 ± 0.001 µM.
In the case of `COc1cc([C@@H]2c3cc4c(cc3[C@H](O)[C@H]3COC(=O)[C@H]23)OCO4)cc(OC)c1OC` [podophyllotoxin, reference compound], in data set [2] (setting [5]), the IC50 was 0.007 ± 0.001 µM.
For vernodalol [Compound 1], the IC50 in data set [3] is 0.26 µM.
